Results taken from US6337348B1, “Oxy-vanadium (iv) complexes having spermicidal activity” (Parker Hughes Institute, priority 1998, dated 2002).

Legend:
Assay type in all cases: cell-based
human sperm [1] = assay: Flow cytometric quantitation of sperm acrosome reaction (anti-CD46 mAb binding); settings: tested at 100 μM, 3 hours, 37° C., mean of two experiments
Experimental: In experiments designed to assess the comparative effects of oxovanadium (IV) complexes and N-9 on sperm acrosome reaction, motile fractions of sperm (10^7/ml) prepared from a single donor were incubated in 1 ml of BWW−0.3% BSA in the presence of 100 μM each of the vanadocene complexes, VO(phen), VO(phen)2, VO(Me2—phen), VO(Me2—phen)2, VO(Cl—phen), VO(Cl—phen)2, VO(bipy), VO(bipy)2, VO(Me2—bipy), VO(Me2—bipy)2, and VO(Br,OH—acph)2 in 0.1% DMSO, N-9, or DMSO (0.1%) alone at 37° C. After 3 hours, 5 μg/ml of purified, phycoerythrin (PE)-conjugated murine anti-CD46 monoclonal antibody (mAb; clone 122-2; Research Diagnostics, Flanders, N.J.) was added and the sperm suspensions incubated for an additional 30 minutes. The suspensions was washed in Tyrode's salt solution (Sigma) containing 1% BSA (1% TBSA) and the percentage of CD46-positive sperm were analyzed by flow cytometry using a FACS Vantage flow cytometer (Becton Dickinson, Mountain View, Calif.), as described previously (DeCruz et al., 1996, Biol Reprod. 54:1217-1228; DeCruz et al., 1992, Fertil. Seril., 58:633-636). Two separate experiments were performed to quantitate acrosomal loss following exposure of sperm to oxovanadium (IV) complexes.

human sperm [2] = assay: DNA fragmentation by in situ nick-end labeling (TUNEL) flow cytometry; settings: 100 μM, 24 hours, 37° C.
Experimental: A flow cytometric two-color terminal deoxynucleotidyl transferase (TdT) assay was employed to detect apoptotic sperm nuclei by TdT-mediated dUTP nick-end labeling (TUNEL, as described in Gavrieli et al., 1992, J. Cell Biol., 119:493-501). The comparative effect of the oxovanadium (IV) complexes, VO(phen), VO(phen)2, VO(Me2—phen), VO(Me2—phen)2, VO(Cl—phen), VO(Cl—phen)2, VO(bipy), VO(bipy)2, VO(Me2—bipy), VO(Me2—bipy)2, and VO(Br,OH—acph)2, to induce apoptosis was tested by incubating 1 ml duplicate aliquots of motile sperm (10^7/ml) in BWW−0.3% BSA at 37° C. for 24 hours with and without 100 μM each of the test compounds. Sperm were washed in phosphate-buffered saline (PBS)−1% BSA, fixed in 4% paraformaldehyde in PBS for 15 minutes. Following two washings in PBS, they were permeabilized with 0.1% Triton X-100 in 0.1% sodium citrate for 2 minutes on ice, and washed twice with PBS. New 3′-hydroxyl (3′—OH) end labeling of fragmented sperm nuclear DNA was performed using TdT and detected by fluorescein (FITC)-conjugated uridine triphosphate (dUTP) according to the manufacturer's recommendations (Boehringer-Mannheim, Indianapolis, Ind.). Sperm aliquots incubated without TdT enzyme served as a negative control. […] Oxovanadium (IV)-induced apopotosis of sperm was shown by an increase in the number of cells staining with FITC- dUTP (M2 gates). The M1 and M2 gates were used to demarcate non-apoptotic and apoptotic PI-counterstained sperm populations, respectively. Two separate experiments were performed to assess dUTP incorporation following exposure of sperm to oxovanadium (IV) complexes.

human sperm [3] = assay: Kinetics of sperm immobilization (timed CASA); settings: for T½ of sperm immobilization (time for 50% motility loss): 200 μM, 37° C.
Experimental: To test the effect of duration of incubation on sperm immobilization in the presence of oxovanadium (IV) complexes, a motile fraction of sperm 10^7/ml) was incubated at 37° C. in 1 ml of BWW−0.3% BSA in the presence of 200 μM each of the complexes or 0.2% DMSO alone. At timed intervals (every 5 and 10 minutes) aliquots (4 μl) were transferred to two 20 μm Microcell (Conception Technologies) chambers, and sperm motility was assessed by CASA.
For CASA, 4 μl each of sperm suspension was loaded into two 20 μm Microcell chambers placed onto a counting chamber at 37° C. At least 5-8 fields per chamber were scanned for analysis using a Hamilton Thorne Integrated Visual Optical System (IVOS) version 10 instrument (Hamilton Thorne Research Inc., Danvers, Mass.). Each field was recorded for 30 seconds. The Hamilton Thorne computer calibrations were set at 30 frames at a frame rate of 30 images/seconds. Other settings were as follows: minimum contrast 8; minimum size 6; low-size gate, 1.0; high-size gate,2.9; low-intensity gate, 0.6; high-intensity gate, 1.4; phase-contrast illumination; low path velocity at 10 μm/seconds and threshold straightness at 80%; magnification factor, 1.95. The performance of the analyzer was periodically checked using the playback function.

Row | Compound | Anti-CD46 positive sperm (%) (human sperm [1]) | TUNEL positive sperm (%) (human sperm [2]) | Anti-CD46 positive sperm (%) (human sperm [1]; listed as VO(Cl—phen)2) | time of exposure to complete sperm motility loss (human sperm [3]) [min] | T½ of sperm immobilization (time for 50% motility loss) (human sperm [3]) [min] | TUNEL positive sperm (%) (human sperm [2]; listed as VO(Cl—phen)2) | Anti-CD46 positive sperm (%) (human sperm [1]; listed as VO(Br,OH—acph)2)
1 | (diaqua)(4,4′-dimethyl-2,2′-bipyridyl)oxovanadium (IV) sulfate [VO(Me2-bipy)] | 6.4 | 45 |  |  |  |  | 
2 | Clc1cc2cccnc2c2ncccc12.O.O.O=S(=O)([O-])[O-].[O]=[V+2] [VO(Cl-phen), (diaqua)(5-chloro-1,10-phenanthroline)oxovanadium (IV) sulfate] | 11.2 | 95 |  |  |  |  | 
3 | Clc1cc2cccnc2c2ncccc12.Clc1cc2cccnc2c2ncccc12.O.O=S(=O)([O-])[O-].[O]=[V+2] [VO(Cl-phen)2, (aqua)bis(5-chloro-1,10-phenanthroline)oxovanadium (IV) sulfate] | 21.5 | 97 | 21.5 | ≤ 10 | 7.3 | Greater than 97% | 
4 | O.O.O=S(=O)([O-])[O-].[O]=[V+2].c1ccc(-c2ccccn2)nc1 [VO(bipy), (diaqua)(2,2′-bipyridyl)oxovanadium (IV) sulfate] | 6.1 | 43 |  |  |  |  | 
5 | Cc1ccnc2c1ccc1c(C)ccnc12.O.O.O=S(=O)([O-])[O-].[O]=[V+2] [VO(Me2-phen), (diaqua)(4,7-dimethyl-1,10-phenanthroline)oxovanadium (IV) sulfate] | 14.0 | 97 |  |  |  |  | 
6 | O.O=S(=O)([O-])[O-].[O]=[V+2].c1cnc2c(c1)ccc1cccnc12.c1cnc2c(c1)ccc1cccnc12 [VO(phen)2, (aqua)bis(1,10-phenanthroline)oxovanadium (IV) sulfate] | 9.9 | 98 |  |  |  |  | 
7 | O.O=S(=O)([O-])[O-].[O-2].[V+4].c1ccc(-c2ccccn2)nc1.c1ccc(-c2ccccn2)nc1 [VO(bipy)2, (aqua)bis(2,2′-bipyridyl)oxovanadium (IV) sulfate] | 4.7 | 40 |  |  |  |  | 
8 | O.O.O=S(=O)([O-])[O-].[O]=[V+2].c1cnc2c(c1)ccc1cccnc12 [VO(phen), (diaqua)(1,10-phenanthroline)oxovanadium (IV) sulfate] | 9.7 | 98 |  |  |  |  | 
9 | (aqua)bis(4,4′-dimethyl-2,2′-bipyridyl)oxovanadium (IV) sulfate [VO(Me2-bipy)2] | 3.2 | 63 |  |  |  |  | 
10 | Cc1ccnc2c1ccc1c(C)ccnc12.Cc1ccnc2c1ccc1c(C)ccnc12.O.O=S(=O)([O-])[O-].[O-2].[V+4] [VO(Me2-phen)2, (aqua)bis(4,7-dimethyl-1,10-phenanthroline)oxovanadium (IV) sulfate] | 11.7 | 94 |  |  |  |  | 
11 | bis(5′-bromo-2′-hydroxyacetophenone)oxovanadium (IV) [VO(Br,OH-acph)2] | 24.3 | 98 |  | ≤ 2 | 0.633 |  | 24.3
